Measured values: patent US6670363B1, “Azole compounds as therapeutic agents for fungal infections” (Ranbaxy Laboratories Limited, priority 2000, dated 2003)
Converted amounts (≈) assume the structure as drawn.

What was measured:
A. fumigatus s 1008 = assay: In vitro MIC, NCCLS M38P broth method (RPMI 1640/MOPS pH7), Aspergillus fumigatus; assay type: cell-based; conditions: for MIC, A. fumigatus 1008: A. fumigatus strain 1008
Candida = assay: In vitro MIC, NCCLS M27A, Candida species; assay type: cell-based; parameters: MIC, Candida albicans 1.549 / MIC, Candida albicans Y-01-19 / MIC, C. krusei 766-1 / MIC, C. krusei Q. C / MIC, Candida tropicalis ATCC / MIC, C. glabrata 90030: unit not given beside the values; MIC, Candida albicans A 26 / MIC, C. parapsilosis Q. C.: unit not given here; conditions: for MIC, C. glabrata 90030: C. glabrata strain 90030; for MIC, C. krusei 766-1: C. krusei strain 766-1; for MIC, C. krusei Q. C: C. krusei strain Q. C; for MIC, C. parapsilosis Q. C.: C. parapsilosis strain Q. C.; for MIC, Candida albicans 1.549: Candida albicans strain 1.549; for MIC, Candida albicans A 26: Candida albicans strain A 26; for MIC, Candida albicans Y-01-19: Candida albicans strain Y-01-19
Cryptococcus neoformans = assay: In vitro MIC, NCCLS M27A, Cryptococcus neoformans; assay type: cell-based; parameters: MIC, C. neoformans I: unit not given beside the values; MIC, C. neoformans M 106: unit not given here; conditions: for MIC, C. neoformans I: C. neoformans strain I; for MIC, C. neoformans M 106: C. neoformans strain M 106
Histoplasma capsulatum = assay type: cell-based

Row | Compound | MIC, A. fumigatus 1008 (A. fumigatus s 1008) | MIC, C. glabrata 90030 (Candida) | MIC, C. krusei 766-1 (Candida) | MIC, C. krusei Q. C (Candida) | MIC, C. parapsilosis Q. C. (Candida) | MIC, Candida albicans 1.549 (Candida) | MIC, Candida albicans A 26 (Candida) | MIC, Candida albicans Y-01-19 (Candida) | MIC, Candida tropicalis ATCC (Candida) | MIC, C. neoformans I (Cryptococcus neoformans) | MIC, C. neoformans M 106 (Cryptococcus neoformans) | MIC, H. capsulatum (Histoplasma capsulatum) [µg/mL] | melting point [°C] | MIC (υg/ml) (A. fumigatus s 1008) (A. fumigatus s 1008) [µg/mL]
1 | O=c1n(-c2ccc(N3CCN(c4cccc(C(F)(F)F)c4)CC3)cc2)cnn1CC(O)(Cn1cncn1)c1ccc(F)cc1F (centres unmarked) [Compound 51, 2-[2-(2,4-Difluorophenyl)-2-hydroxy-3-(1H-1,2,4-triazol-1-yl)propyl]-4-{4-[4-(3-trifluoromethylphenyl)-1-piperazinyl]phenyl}-3-(2H,4H)-1,2,4-triazolone] | >16 | 1.00 | 1.00 | 0.25 | 0.06 | 0.25 | <0.03 | 0.25 | <0.03 | <0.03 | <0.03 | < 0.03 | 166 to 168 | –
2 | CCc1ccccc1N1CCN(c2ccc(-n3cnn(CC(O)(Cn4cncn4)c4ccc(F)cc4F)c3=O)cc2)CC1 (centres unmarked) [Compound 60, 2-[2-(2,4-Difluorophenyl)-2-hydroxy-3-(1H-1,2,4-triazol-1-yl)propyl]-4-{4-[4-(2-ethylphenyl)-1-piperazinyl]phenyl}-3-(2H,4H)-1,2,4-triazolone] | >16 | 0.50 | 1.00 | 0.25 | <0.03 | >16 | <0.03 | 0.25 | <0.03 | <0.03 | <0.03 | < 0.03 | 148 to 150 | –
3 | COC(=O)Cc1ccc(N2CCN(c3ccc(-n4cnn(CC(O)(Cn5cncn5)c5ccc(F)cc5F)c4=O)cc3)CC2)cc1 (centres unmarked) [Compound 93, 2-[2-(2,4-Difluorophenyl)-2-hydroxy-3-(1H-1,2,4-triazol-1-yl)propyl]-4-{4-[4-(4-(2-methoxy-2-oxoethyl)phenyl)-1-piperazinyl]phenyl}-3-(2H,4H)-1,2,4-triazolone] | – | – | – | – | – | – | – | – | – | – | – | – | 66 to 69 | >12.5
4 | COc1ccc(F)cc1N1CCN(c2ccc(-n3cnn(CC(O)(Cn4cncn4)c4ccc(F)cc4F)c3=O)cc2)CC1 (centres unmarked) [Compound 59, 2-[2-(2,4-Difluorophenyl)-2-hydroxy-3-(1H-1,2,4-triazol-1-yl)propyl]-4-{4-[4-(2-methoxy-5-fluorophenyl)-1-piperazinyl]phenyl}-3-(2H,4H)-1,2,4-triazolone] | >16 | 1.00 | 4.00 | 1.00 | <0.03 | 1.00 | <0.03 | 0.50 | <0.03 | <0.03 | 0.12 | < 0.03 | – | –
5 | CCc1ccccc1N1CCN(c2ccc(-n3c(C)nn([C@H](C)[C@@](O)(Cn4cncn4)c4ccc(F)cc4F)c3=O)cc2)CC1 [Compound 32, 2-{[1R2S/1S2R]-2-(2,4-Difluorophenyl)-2-hydroxy-1-methyl-3-(1H-1,2,4-triazol-1-yl)propyl}-4-{4-[4-(2-ethylphenyl)-1-piperazinyl]phenyl}-3-(2H,4H)-5-methyl-1,2,4-triazolone] | >16 | 2.00 | >16 | 4.00 | 0.50 | >16 | <0.03 | 4.00 | <0.03 | 0.50 | 0.50 | 0.25 (≈ 0.407 µM) | – | –
6 | C[C@@H](n1ncn(-c2ccc(N3CCN(c4ccc(Cl)cc4)CC3)cc2)c1=O)[C@](O)(Cn1cncn1)c1ccc(F)cc1F [Compound 1, 2-{[1R2R/1S2S]-2-(2,4-Difluorophenyl)-2-hydroxy-1-methyl-3-(1H-1,2,4-triazol-1-yl)propyl}-4-{4-[4-(4-chlorophenyl)-1-piperazinyl]phenyl}-3-(2H,4H)-1,2,4-triazolone] | 0.12 | 0.25 | 0.25 | 0.12 | <0.03 | 0.12 | <0.03 | 0.12 | <0.03 | <0.03 | <0.03 | 0.06 (≈ 0.0988 µM) | – | –
7 | O=C(O)CCc1ccc(N2CCN(c3ccc(-n4cnn(CC(O)(Cn5cncn5)c5ccc(F)cc5F)c4=O)cc3)CC2)cc1 (centres unmarked) [Compound 94, 2-[2-(2,4-Difluorophenyl)-2-hydroxy-3-(1H-1,2,4-triazol-1-yl)propyl]-4-{4-[4-(4-(carboxyethyl)-phenyl)-1-piperazinyl]phenyl}-3-(2H,4H)-1,2,4-triazolone] | – | – | – | – | – | – | – | – | – | – | – | – | 235 to 239 | >12.5
8 | C[C@@H](n1ncn(-c2ccc(N3CCN(c4ccccc4F)CC3)cc2)c1=O)[C@](O)(Cn1cncn1)c1ccc(F)cc1F [Compound 25, 2-{[1R2R/1S2S]-2-(2,4-Difluorophenyl)-2-hydroxy-1-methyl-3-(1H-1,2,4-triazol-1-yl)propyl}-4-{4-[4-(2-fluorophenyl)-1-piperazinyl]phenyl}-3-(2H,4H)-1,2,4-triazolone] | 0.50 | 0.12 | 0.12 | 0.06 | <0.03 | 0.06 | <0.03 | 0.12 | <0.03 | <0.03 | <0.03 | 0.06 (≈ 0.102 µM) | – | –
9 | C[C@@H](n1ncn(-c2ccc(N3CCN(c4ccccc4)CC3)cc2)c1=O)[C@](O)(Cn1cncn1)c1ccc(F)cc1F [Compound 5] | 0.50 | 1.00 | 0.50 | 0.12 | <0.03 | 2.00 | <0.03 | 0.12 | <0.03 | <0.03 | <0.03 | < 0.03 | – | –
10 | Cc1ccc(N2CCN(c3ccc(-n4cnn([C@H](C)[C@@](O)(Cn5cncn5)c5ccc(F)cc5F)c4=O)cc3)CC2)cc1Cl [Compound 18, 2-{[1R2S/1S2R]-2-(2,4-Difluorophenyl)-2-hydroxy-1-methyl-3-(1H-1,2,4-triazol-1-yl)propyl}-4-{4-[4-(3-chloro-4-methylphenyl)-1-piperazinyl]phenyl}-3-(2H,4H)-1,2,4-triazolone] | >16 | 1.00 | >16 | 2.00 | 0.25 | 2.00 | <0.03 | 1.00 | <0.03 | 0.12 | 0.25 | 0.25 (≈ 0.403 µM) | – | –
11 | C[C@@H](n1ncn(-c2ccc(N3CCN(c4ccc(F)c(Cl)c4)CC3)cc2)c1=O)[C@](O)(Cn1cncn1)c1ccc(F)cc1F [Compound 15, 2-{[1R2R/1S2S]-2-(2,4-Difluorophenyl)-2-hydroxy-1-methyl-3-(1H-1,2,4-triazol-1-yl)propyl}-4-{4-[4-(3-chloro-4-fluorophenyl)-1-piperazinyl]phenyl}-3-(2H,4H)-1,2,4-triazolone] | 0.50 | 0.50 | 0.50 | 0.25 | <0.03 | 1.00 | <0.03 | 0.25 | <0.03 | <0.03 | <0.03 | 0.12 (≈ 0.192 µM) | – | –
12 | C[C@@H](n1ncn(-c2ccc(N3CCN(c4ccc(F)cc4)CC3)cc2)c1=O)[C@@](O)(Cn1cncn1)c1ccc(F)cc1F [Compound 12, 2-{[1R2S/1S2R]-2-(2,4-Difluorophenyl)-2-hydroxy-1-methyl-3-(1H-1,2,4-triazol-1-yl)propyl}-4-{4-[4-(4-fluorophenyl)-1-piperazinyl]phenyl}-3-(2H,4H)-1,2,4-triazolone] | >16 | 4.00 | >16 | 8.00 | 0.06 | 4.00 | <0.03 | 8.00 | <0.03 | 0.12 | 0.25 | < 0.03 | – | –
13 | O=c1n(-c2ccc(N3CCN(c4ccc(CCO)cc4)CC3)cc2)cnn1CC(O)(Cn1cncn1)c1ccc(F)cc1F (centres unmarked) [Compound 95, 2-[2-(2,4-Difluorophenyl)-2-hydroxy-3-(1H-1,2,4-triazol-1-yl)propyl]-4-{4-[4-(4-(2-hydroxyethyl)phenyl)-1-piperazinyl]phenyl}-3-(2H,4H)-1,2,4-triazolone] | – | – | – | – | – | – | – | – | – | – | – | – | 114 to 115 | >12.5
